Laboratory results published in article PMC11162475, “Rule-based omics mining reveals antimicrobial macrocyclic peptides against drug-resistant clinical isolates” (Nature Communications, 2024).
Converted amounts (≈) assume the structure as drawn.

Experiments:
[1] = test system: Enterococcus faecalis 19-1; experiment: microbe, parasite or virus in culture; format: cell-based; details: 191; Enterococcus faecalis 19-1; determined by Sichuan Primed Shines Bio-tech, similar protocol; read-out: MIC
Method: (§1) For MIC determination, Staphylococcus aureus ATCC25923, Bacillus subtilis 168, Micrococcus luteus DSM1790, Enterococcus faecalis OG1RF, Enterococcus faecium MCC2763, Escherichia coli DH5α and Pseudomonas aeruginosa PAO1 were used as indicator strains. Nisin and vancomycin were used as positive controls. A dilution series of massatide A, massatide B, vancomycin (16, 8, 4, 2, 1, 0.5, 0.25, 0.125, 0.0625, 0.0313 μg/mL) and sistertide A1, kebanetide A1, kebanetide A2, nisin (64, 32, 16, 8, 4, 2, 1, 0.5, 0.25, 0.125 μg/mL) were prepared in 96-well plate from 1–10th column. The indicator strains were added to the compound-containing well. The indicator strain culture with no antibiotics was prepared in the 11th column. The 12th column was filled with 200 μL empty MHB medium. The 96-well plate was incubated at 37 °C for 20 h (30 °C for M. luteus and B. subtilis). The OD600 was detected on MULTISKAN Sky (Thermo Scientific) and MIC values were determined. The MIC values of clinical isolates were determined by Sichuan Primed Shines Bio-tech Co., Ltd. (China) following similar protocol. Levofloxacin was used as a positive control.

[2] = test system: Klebsiella pneumoniae 15-1; experiment: microbe, parasite or virus in culture; format: cell-based; details: 151; Klebsiella pneumoniae 15-1; determined by Sichuan Primed Shines Bio-tech, similar protocol; read-out: MIC
Method: as §1

[3] = test system: Acinetobacter baumannii 20-1; experiment: microbe, parasite or virus in culture; format: cell-based; details: 201; Acinetobacter baumannii 20-1; determined by Sichuan Primed Shines Bio-tech, similar protocol; read-out: MIC
Method: as §1

[4] = test system: Acinetobacter baumannii 20-2; experiment: microbe, parasite or virus in culture; format: cell-based; details: 202; Acinetobacter baumannii 20-2; determined by Sichuan Primed Shines Bio-tech, similar protocol; read-out: MIC
Method: as §1

[5] = test system: Klebsiella pneumoniae ATCC700603; experiment: microbe, parasite or virus in culture; format: cell-based; details: Klebsiella pneumoniae ATCC700603; determined by Sichuan Primed Shines Bio-tech, similar protocol; read-out: MIC
Method: as §1

LREfa 20-1 = experiment: microbe, parasite or virus in culture; format: cell-based, Enterococcus faecalis; details: Enterococcus faecalis, 201; LREfa 20-1 (linezolid-resistant E. faecalis); determined by Sichuan Primed Shines Bio-tech, similar protocol; read-out: MIC
Method: as §1

VREfa ATCC51575 = experiment: microbe, parasite or virus in culture; format: cell-based, Enterococcus faecalis; details: Enterococcus faecalis; VREfa ATCC51575 (vancomycin-resistant E. faecalis); determined by Sichuan Primed Shines Bio-tech, similar protocol; read-out: MIC
Method: as §1

MRSA 15-1 = experiment: microbe, parasite or virus in culture; format: cell-based, Staphylococcus aureus; details: Staphylococcus aureus; MRSA 15-1 (methicillin-resistant S. aureus); determined by Sichuan Primed Shines Bio-tech, similar protocol; read-out: MIC
Method: as §1

MRSA ATCC33591 = experiment: microbe, parasite or virus in culture; format: cell-based, Staphylococcus aureus; details: Staphylococcus aureus; MRSA ATCC33591; determined by Sichuan Primed Shines Bio-tech, similar protocol; read-out: MIC
Method: as §1

LRSA 20-1 = experiment: microbe, parasite or virus in culture; format: cell-based, Staphylococcus aureus; details: Staphylococcus aureus; LRSA 20-1 (linezolid-resistant S. aureus); determined by Sichuan Primed Shines Bio-tech, similar protocol; read-out: MIC
Method: as §1

VMSA ATCC700788 = experiment: microbe, parasite or virus in culture; format: cell-based, Staphylococcus aureus; details: Staphylococcus aureus; VMSA ATCC700788 (vancomycin-intermediate S. aureus); determined by Sichuan Primed Shines Bio-tech, similar protocol; read-out: MIC
Method: as §1

VMSA ATCC700699 = experiment: microbe, parasite or virus in culture; format: cell-based, Staphylococcus aureus; details: Staphylococcus aureus; VMSA ATCC700699 (vancomycin-intermediate S. aureus); determined by Sichuan Primed Shines Bio-tech, similar protocol; read-out: MIC
Method: as §1

MRSA ATCC43300 = experiment: microbe, parasite or virus in culture; format: cell-based, Staphylococcus aureus; details: Staphylococcus aureus; MRSA ATCC43300; determined by Sichuan Primed Shines Bio-tech, similar protocol; read-out: MIC
Method: as §1

[6] = Mammalian cytotoxicity, CCK-8 assay; format: cell-based; details: human
Method: (§2) Bioactivity assay of the crude extract
(§3) Protease stability of massatide A
(§4) Thermal stability of massatide A […]
(§5) and 1% penicillin -streptomycin. […]
(§6) and CO 2-controllable incubator with 5% CO 2. All the cell experiments were performed […]
(§7) Cell viability was determined by the CCK -8 assay. HeLa and Hek -293T cells were […]
(§8) µg/ml. At the end of the fixed incubation period (24 h), cells were washed with PBS to remove excess compound. We added 100 µl fresh medium and 10 µl CCK-8 reagent.
(§9) After 2 h incubation at 37°C, absorbance at 450 nm was recorded using a microplate reader. All experiments were performed in triplicate (n=3 independent experiments).
(§10) Growth kinetics of S. aureus
(§11) Massatide A or B was prepared in a 96-well plate at the concentration of 8×MIC, 4×MIC, 2×MIC, 1×MIC and 0.5×MIC , respectively. The MHB medium with no compound was used as a control. Then, the overnight culture of S. aureus ATCC 25923 cells was added to the medium at 1:1,000. The plate was incubated with shaking in SpectraMax iD3 (MOLECULAR DEVICES) at 30 ℃. OD600 was measured every 30 min for 36 hours. To analyze the lysis, 1mL of S. aureus ATCC 25923 culture (OD600 1.0) was treated with massatide A or vancomycin (10×MIC) for 24h. An untreated sample was used as a negative control.
(§12) Time-dependent killing assay
(§13) An overnight culture of S. aureus ATCC 25923 cells was diluted at 1:10,000 in MHB medium and incubated at 37 ℃, 200 rpm for 2 hours to reach the early exponential.
(§14) Then, massatide A or vancomycin was added to the culture at the concentration of 10×MIC. Bacteria were still cultivated at 37 ℃, 200 rpm. Culture with no antibiotics was used as a negative control. 10 μL aliquots were removed at intervals, centrifuged, and resuspended in 1 ml PBS. Serially diluted (10-fold) suspensions were plated on MHB agar and incubated at 37 ℃ overnight for counting of colony-forming units.
(§15) Experiments were performed in triplicate.
(§16) Sequential culturing of S. aureus ATCC 25923 was performed in the presence of a subinhibitory concentration of massatide A to observe whether the resistance developed. […]

HeLa cells = experiment: Mammalian cytotoxicity, CCK-8 assay; format: cell-based
Method: as §2, §3, §4, §5, §6, §7, §8, §9, §10, §11, §12, §13, §14, §15, §16

[7] = test system: Enterococcus faecalis OG1RF; experiment: microbe, parasite or virus in culture; format: cell-based; details: OG1RF, 20 h
Method: as §1

Bacillus subtilis 168 = experiment: microbe, parasite or virus in culture; format: cell-based; details: 168, 20 h
Method: as §1

[8] = test system: Staphylococcus aureus ATCC25923; experiment: microbe, parasite or virus in culture; format: cell-based; details: ATCC25923, 20 h
Method: as §1

[9] = test system: Enterococcus faecium MCC2763; experiment: microbe, parasite or virus in culture; format: cell-based; details: MCC2763, 20 h
Method: as §1

[10] = test system: Micrococcus luteus DSM1790; experiment: microbe, parasite or virus in culture; format: cell-based; details: DSM1790, 20 h
Method: as §1

[11] = test system: Staphylococcus aureus ATCC25923; experiment: Kirby-Bauer assay, zone of inhibition (agar well); format: cell-based; details: S. aureus ATCC25923; 10 μL of 3.2 mg/mL DMSO stock in well of soft LB agar, 37 °C, 20 h
Method: (§17) The stock solution of massatide A (1) and B (1a) 3.2 mg/mL were prepared in DMSO. 40 μL overnight culture of Micrococcus luteus DSM1790 was added to 20 mL soft Luria-Bertani agar (1% agar), and then poured into a plate. 10 μL tip was used to make two wells on the plate. 10 μL massatide A (1) or B (1a) solution was added in one of the wells, while in the other well, 10 μL DMSO was added as a negative control. The plates were incubated at 30 °C for 20 h to observe the zone of inhibition. Staphylococcus aureus ATCC25923 was also used to observe the inhibition zone using a similar method. The only difference is incubating at 37 °C. Stock solutions of sistertide A1, kebanetide A1 and A2 were 3.2 mg/mL, 1.6 mg/mL and 1.6 mg/mL, respectively. The method to observe the activity of these compounds individually was the same as that of massatide.

[12] = test system: Micrococcus luteus DSM1790; experiment: Kirby-Bauer assay, zone of inhibition (agar well); format: cell-based; details: M. luteus DSM1790; 10 μL DMSO stock (3.2 or 1.6 mg/mL) in well of soft LB agar, 30 °C, 20 h
Method: as §17

Escherichia coli DH5α = format: cell-based; details: DH5α, 20 h
Method: as §1

[13] = test system: Pseudomonas aeruginosa PAO1; format: cell-based; details: PAO1, 20 h
Method: as §1

Q: What does the source list for `C[C@H]1COc2c(N3CCN(C)CC3)c(F)cc3c(=O)c(C(=O)O)cn1c23` [Levofloxacin, reference compound]?
A: MIC [1]: 1 µg/mL (≈ 2.77 µM); MIC [2]: 0.25 µg/mL (≈ 0.692 µM); MIC [3]: 8 µg/mL (≈ 22.1 µM); MIC [4]: 0.06 µg/mL (≈ 0.166 µM); MIC [5]: 0.5 µg/mL (≈ 1.38 µM); MIC (LREfa 20-1): 32 µg/mL (≈ 88.6 µM); MIC (VREfa ATCC51575): 0.5 µg/mL (≈ 1.38 µM); MIC (MRSA 15-1): 16 µg/mL (≈ 44.3 µM); MIC (MRSA ATCC33591): 0.25 µg/mL (≈ 0.692 µM); MIC (LRSA 20-1): 32 µg/mL (≈ 88.6 µM); MIC (VMSA ATCC700788): 32 µg/mL (≈ 88.6 µM); MIC (VMSA ATCC700699): 64 µg/mL (≈ 177 µM); MIC (MRSA ATCC43300): 0.25 µg/mL (≈ 0.692 µM)

Q: What does the source list for `C/C=C1\NC(=O)C(N(C)C)C(C)SC[C@@H](C(=O)N/C(=C\C)C(=O)N[C@H](C(=O)N[C@@H](C)C(=O)N[C@H](C)C(=O)N[C@@H](Cc2ccccc2)C(=O)N[C@@H](C)C(=O)NC2C(=O)NCC(=O)N[C@@H](Cc3ccc(O)cc3)C(=O)N[C@@H](Cc3ccccc3)C(=O)N[C@H](C)C(=O)N/C=C\SC2C)C(C)C)NC(=O)[C@@H]2CCCN2C(=O)[C@H](C(C)C)NC1=O` (stereo partly drawn) [Massatide B (1a), massatide B]?
A: IC50 at 24 h [6]: > 200 µg/mL; cytotoxicity against Hela cells (HeLa cells): did not exhibit any significant cytotoxicity; MIC [7]: 4 µg/mL (≈ 2.45 µM); MIC (Bacillus subtilis 168): 4 µg/mL (≈ 2.45 µM); MIC [8]: 1 µg/mL (≈ 0.612 µM); MIC [9]: 4 µg/mL (≈ 2.45 µM); MIC [10]: 0.25 µg/mL (≈ 0.153 µM); inhibitory activity (zone of inhibition) [11]: strong inhibitory activity; inhibitory activity (zone of inhibition) [12]: strong inhibitory activity; MIC (Escherichia coli DH5α): >64 µg/mL; MIC [13]: >64 µg/mL
